Key:
Histamine H1 receptor = Histamine H1 receptor (Cavia porcellus, UniProt P31389); assay: In vitro inhibition of histamine-induced contractions in guinea pig ileum; assay type: functional, tissue-based
[1] = In vivo for the inhibition of histamine-induced mortality in guinea pig; assay type: functional; conditions: Cavia porcellus

Histamine H1 receptor, sequence (P31389 whole entry): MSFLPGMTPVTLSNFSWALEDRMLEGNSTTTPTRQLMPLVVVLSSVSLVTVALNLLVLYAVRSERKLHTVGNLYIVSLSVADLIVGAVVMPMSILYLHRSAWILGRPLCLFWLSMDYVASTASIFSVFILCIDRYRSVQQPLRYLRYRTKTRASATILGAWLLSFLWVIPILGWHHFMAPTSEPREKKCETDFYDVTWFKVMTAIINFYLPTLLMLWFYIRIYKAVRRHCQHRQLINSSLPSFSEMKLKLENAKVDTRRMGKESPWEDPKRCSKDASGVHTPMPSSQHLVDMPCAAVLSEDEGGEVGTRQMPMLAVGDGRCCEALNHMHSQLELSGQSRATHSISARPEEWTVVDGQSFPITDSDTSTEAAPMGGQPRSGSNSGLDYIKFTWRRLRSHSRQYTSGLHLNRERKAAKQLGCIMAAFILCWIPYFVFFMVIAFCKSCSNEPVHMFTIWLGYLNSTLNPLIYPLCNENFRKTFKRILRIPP

SMILES	IC50 (Histamine H1 receptor) [nM]	ED50 [1] [mg/kg]
CN1CCN(c2nc3ccccc3n2-c2ccccc2)CC1	760	
CCCC(C)Cn1c(N2CCN(C)CC2)nc2ccccc21 (configuration not stated)	1500	
CN1CCN(c2nc3ccccc3n2Cc2ccccc2)CC1	17	> 0.05
CCCOCn1c(N2CCN(C)CC2)nc2ccccc21	18	> 0.1
CCOCCn1c(N2CCCN(CC)CC2)nc2ccccc21	16	0.032
CCCCCn1c(N2CCN(C)CC2)nc2ccccc21	19	0.19
COCCCn1c(N2CCN(C)CC2)nc2ccccc21	860	> 0.1
CCCC(C)n1c(N2CCN(C)CC2)nc2ccccc21 (configuration not stated)	1400	
CCSCCCn1c(N2CCN(C)CC2)nc2ccccc21	530	
CCOCCn1c(N2CCN(Cc3ccccc3)CC2)nc2ccccc21	27	0.039
CCOCCn1c(N2CCN(c3ccccc3)CC2)nc2ccccc21	> 10000	
CN1CCN(c2nc3ccccc3n2CCc2ccccc2)CC1	240	
CCCCN1CCCN(c2nc3ccccc3n2CCOCC)CC1	8.4	0.12
CN1CCN(c2nc3ccccc3n2CCOCc2ccccc2)CC1	430	> 0.1
C=CCOCCn1c(N2CCN(C)CC2)nc2ccccc21	17	
CCSCCn1c(N2CCN(C)CC2)nc2ccccc21	19	0.28
CCCCCCCCCCn1c(N2CCN(C)CC2)nc2ccccc21	4200	
CCCCCCCn1c(N2CCN(C)CC2)nc2ccccc21	150	
CCOCCn1c(N2CCN(CC)CC2)nc2ccccc21	18	
CCCn1c(N2CCN(C)CC2)nc2ccccc21	380	
CN1CCN(c2nc3ccccc3n2CCOCCO)CC1	42	0.051
C=COCCn1c(N2CCN(C)CC2)nc2ccccc21	10	0.023
CCCN1CCN(c2nc3ccccc3n2CCOCC)CC1	16	0.021
CCCCCN1CCN(c2nc3ccccc3n2CCOCC)CC1	30	> 0.1
C=CCOCCn1c(N2CCCN(C)CC2)nc2ccccc21	10	
CCCOCCn1c(N2CCCN(C)CC2)nc2ccccc21	16	
CCOCCn1c(N2CCCN(Cc3ccccc3)CC2)nc2ccccc21	15	> 0.1

SMILES	IC50 (Histamine H1 receptor) [nM]	ED50 [1] [mg/kg]
CN1CCN(c2nc3ccccc3[nH]2)CC1	> 3000	
CCCCOCCn1c(N2CCCN(C)CC2)nc2ccccc21	10	> 0.1
CCCCCCN1CCN(c2nc3ccccc3n2CCOCC)CC1	8.6	> 0.1
CCCOCCn1c(N2CCN(C)CC2)nc2ccccc21	20	
CCOCCn1c(N2CCN(C=O)CC2)nc2ccccc21	> 3000	
CCOCCn1c(N2CCCNCC2)nc2ccccc21	25	0.041
CCCCCN1CCCN(c2nc3ccccc3n2CCOCC)CC1	7.4	> 0.05
CCCCOCCn1c(N2CCN(C)CC2)nc2ccccc21	38	> 0.1
CN1CCN(c2nc3ccccc3n2CCOc2ccccc2)CC1	6.9	
CCCSCn1c(N2CCN(C)CC2)nc2ccccc21	68	
C#CCOCCn1c(N2CCN(C)CC2)nc2ccccc21	12	
CN1CCN(c2nc3ccccc3n2C)CC1	320	
CN1CCN(c2nc3ccccc3n2CCO)CC1	410	
CCOCCn1c(N2CCNCC2)nc2ccccc21	11	
CCCCn1c(N2CCN(C)CC2)nc2ccccc21	50	
CCCCCCn1c(N2CCN(C)CC2)nc2ccccc21	26	
CCCCN1CCN(c2nc3ccccc3n2CCOCC)CC1	15	> 0.1
CC(C)CCn1c(N2CCN(C)CC2)nc2ccccc21	1400	
COCCn1c(N2CCN(C)CC2)nc2ccccc21	13	> 0.05
C#CCOCCn1c(N2CCCN(C)CC2)nc2ccccc21	9.9	
CCOCCn1c(N2CCN(C(c3ccccc3)c3ccccc3)CC2)nc2ccccc21	> 3000	
CCOCCn1c(N2CCN(CCc3ccccc3)CC2)nc2ccccc21	31	> 0.1
CCCN1CCCN(c2nc3ccccc3n2CCOCC)CC1	8.4	> 0.1
CN1CCCN(c2nc3ccccc3n2CCOc2ccccc2)CC1	9.1	
CCOCCn1c(N2CCN(C)CC2)nc2ccccc21	10	
CCOCCn1c(N2CCCN(C)CC2)nc2ccccc21 [EMEDASTINE]	6.1	0.0044

Reference: ChEMBL document CHEMBL1123303, “Synthesis of 2-(4-substituted-1-piperazinyl)benzimidazoles as H1-antihistaminic agents” (J Med Chem, 1986)
